Reference: patent US20140163073A1, “Small Molecule Inhibitors of P-type ATPases” (priority 2012, published 2014)
In brackets after ≈: the same amount, converted by molar mass. Entries after “also recorded” stand apart in the source; their conditions may differ. Where two headings read alike, the source gives them in different places.

Columns and labels:
ATP7A = target: T1, ATP7A (Mus musculus, UniProt Q64430); assay: Cu+2-stimulated ATP7A trafficking, co-localization assay; assay type: cell-based; settings: B16F10 cells
T1 construct: endogenous in cells; host or cells: B16F10 mouse melanoma cells
T1 sequence (Q64430 1-1491): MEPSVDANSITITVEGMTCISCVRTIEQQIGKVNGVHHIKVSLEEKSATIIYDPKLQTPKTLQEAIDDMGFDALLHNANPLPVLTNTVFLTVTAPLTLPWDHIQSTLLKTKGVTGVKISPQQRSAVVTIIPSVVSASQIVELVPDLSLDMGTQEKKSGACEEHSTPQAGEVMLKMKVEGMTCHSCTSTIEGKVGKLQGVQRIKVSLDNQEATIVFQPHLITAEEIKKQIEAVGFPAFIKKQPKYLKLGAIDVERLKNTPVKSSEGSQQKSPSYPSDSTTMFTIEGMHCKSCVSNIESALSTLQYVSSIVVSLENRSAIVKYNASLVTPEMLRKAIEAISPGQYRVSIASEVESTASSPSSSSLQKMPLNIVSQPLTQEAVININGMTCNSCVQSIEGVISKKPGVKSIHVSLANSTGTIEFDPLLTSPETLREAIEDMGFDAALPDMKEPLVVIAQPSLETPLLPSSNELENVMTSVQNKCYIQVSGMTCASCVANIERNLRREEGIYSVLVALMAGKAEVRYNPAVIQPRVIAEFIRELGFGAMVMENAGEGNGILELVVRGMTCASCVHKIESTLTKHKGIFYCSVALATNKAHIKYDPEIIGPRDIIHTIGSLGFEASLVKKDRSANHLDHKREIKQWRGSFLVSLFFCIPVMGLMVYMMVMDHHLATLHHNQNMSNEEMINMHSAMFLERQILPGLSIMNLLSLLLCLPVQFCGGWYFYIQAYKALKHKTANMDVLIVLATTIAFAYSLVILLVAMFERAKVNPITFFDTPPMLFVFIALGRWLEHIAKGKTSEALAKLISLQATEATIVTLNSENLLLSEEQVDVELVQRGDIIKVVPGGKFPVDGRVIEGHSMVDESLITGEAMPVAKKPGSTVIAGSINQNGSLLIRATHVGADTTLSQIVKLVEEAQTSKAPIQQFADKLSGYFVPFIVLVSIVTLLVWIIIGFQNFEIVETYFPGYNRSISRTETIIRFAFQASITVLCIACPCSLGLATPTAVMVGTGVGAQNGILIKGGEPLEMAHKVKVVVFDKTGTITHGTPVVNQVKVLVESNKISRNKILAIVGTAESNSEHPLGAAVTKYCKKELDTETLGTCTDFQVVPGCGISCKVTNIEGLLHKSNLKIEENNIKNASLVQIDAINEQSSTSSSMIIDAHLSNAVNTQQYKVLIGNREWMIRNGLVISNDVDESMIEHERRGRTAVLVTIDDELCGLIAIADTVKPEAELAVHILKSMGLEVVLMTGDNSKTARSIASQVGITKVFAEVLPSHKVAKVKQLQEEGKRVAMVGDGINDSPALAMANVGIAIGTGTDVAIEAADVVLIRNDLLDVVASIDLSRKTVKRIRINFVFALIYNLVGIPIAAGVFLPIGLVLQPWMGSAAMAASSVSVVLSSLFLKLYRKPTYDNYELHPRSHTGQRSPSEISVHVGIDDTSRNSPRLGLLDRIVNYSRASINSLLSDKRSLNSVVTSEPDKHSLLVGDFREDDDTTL
Experimental: Cells were incubated for 16 hours with […] omeprazole or the vehicle (DMSO) and then treated with Cu+2, or not treated, to determine if omeprazole could inhibit Cu+2-stimulated (CuCl2) ATP7A trafficking. […] ATP7A is seen as green following immunofluorescence protocols previously described (Petris et al., 1999), the Golgi stained red, and the nucleus stained blue. […]
This is consistent with the idea that omeprazole is metabolized to generate an inhibitory metabolite (such as hydroxy-omeprazole or perhaps the sulfonated metabolite) which then interacts with newly synthesized tyrosinase. This finding also is consistent with the hypothesis that omeprazole inhibits metallation of newly synthesized tyrosinase via ATP7A, rather than functioning as a direct inhibitor of tyrosinase per se; that is, a 72 hour incubation in omeprazole appears to be required so that preexisting tyrosinase can be turned over, allowing the inhibitory effect of omeprazole to be detected on newly synthesized tyrosinase.

melanocytes = assay: Inhibition of melanogenesis / pigment development in cultured melanocytes; assay type: cell-based
[1] = tested on: reconstructed human skin model; assay: Reconstructed human skin model; assay type: cell-based
Text: (§1) PPIs had been known to function in the parietal cells to block the production of stomach acid by binding to at least one cysteine residue of the gastric proton pump, ATP4A, to thus effect long-lasting, semi-irreversible inactivation of the ATP4A. In order to bind to the ATPase, the PPI must be in its active form, and the PPI requires an acidic environment to undergo rearrangement to its active form.

[2] = tested on: tyrosinase, MITF, TRP-2, Pme117 mRNA; assay: mRNA levels of melanogenesis related proteins by RT-PCR in B16F10 mouse melanoma cells; assay type: cell-based
Text: The inventors next examined the effect of omeprazole on tyrosinase, the principal, rate-limiting enzyme in melanin synthesis.

[3] = tested on: normal human epidermal melanocytes; assay: Melanogenesis and melanin content in normal human epidermal melanocytes; assay type: cell-based
Text: as §1

[4] = pH below 0.8; cited from earlier work

Row | Structure (SMILES) | inhibition of Cu+2-stimulated ATP7A re-localization (ATP7A; 100 μM for 16 hours, then 10 μM Cu+2 for 3 hours) | ATP7A trafficking without Cu+2 stimulation (ATP7A; SCH-28080, absence of Cu+2) | inhibition of melanogenesis (melanocytes) | inhibition of melanogenesis (melanocytes; listed as SCH-20808) | concentration at which effective [1] | tyrosinase mRNA levels [2] | cytotoxicity [3] | EC50 ([3]; Melanocyte, read-out: EC50 of melanogenesis inhibition) | reorganization (stability) [4] | concentration that inhibits melanogenesis (melanocytes; cultured melanocytes)
1 | Cc1nc2c(OCc3ccccc3)cccn2c1CC#N [SCH-28080] | inhibition; also recorded: very potent inhibitor | no effect on ATP7A trafficking | also inhibited melanogenesis | strongly inhibited melanogenesis |  |  |  |  |  | 
2 | COc1ccc2[nH]c([S+]([O-])Cc3ncc(C)c(OC)c3C)nc2c1 (centres unmarked) [omeprazole, 5- or 6-methoxy-2-{[(4-methoxy-3,5-dimethylpyridin-2-yl)methyl]sulfinyl}-1H-benzimidazole] |  |  |  |  | 50 µg/mL | no effect | low cytotoxicity | 15 µg/mL (≈ 43.4 µM) | quickly reorganizes into the sulfonamide analog | 5 to 50 µg/mL
3 | C[C@@H]1O[C@@H](O[C@H]2C[C@@H](O)[C@]3(CO)[C@H]4[C@H](O)C[C@]5(C)[C@@H](C6=CC(=O)OC6)CC[C@]5(O)[C@@H]4CC[C@]3(O)C2)[C@H](O)[C@H](O)[C@H]1O [ouabain] |  |  | does not inhibit melanogenesis |  |  |  |  |  |  | 
